Assay results reported in patent US5432159A, “N-(α-substituted-pyridinyl)carbonyl dipeptide antihypertensive agents” (Lacer S.A., priority 1991, dated 1995).

Columns and labels:
[1] = tested on: Angiotensin I-Induced Contractions in Guinea-Pig Ileum; experiment: Inhibition of Angiotensin I-induced contractions in guinea-pig ileum; conditions: final bath concentration 10 ng/ml; Angiotensin I 100 ng/ml; compound added 2 min before agonist; average of ilea from 5 guinea-pigs
Protocol: Segments of 1.5 cm of freshly excised and washed terminal ileum were suspended in 25-ml tissue baths containing Tyrode's solution at 31° C. and bubbled with 95% O2 -5% CO2. With an initial load of 1.0 g, the resting tension after equilibration and the responses to Angiotensin I or Angiotensin II (both at 100 ng/ml) were monitored and recorded by means of an Ealing isometric transducer and a Lectromed polygraph. Several compounds of this invention were tested in this system, adding them to the bath 2 min. before the respective agonist.
At final bath concentrations of 10 ng/ml, the inhibitory effect of the tested compounds regarding the Angiotensin I-induced contractions was determined. The obtained results are given in Table I. All % inhibitions given therein are the average of results obtained with segments of ilea from 5 guinea-pigs. At final bath concentrations of 1 μg/ml none of the tested compounds produced an appreciable modification of the contractions induced by Angiotensin II.

[2] = tested on: spontaneously hypertensive rats; experiment: Antihypertensive activity in spontaneously hypertensive rats (SHR), tail cuff systolic blood pressure; assay type: in vivo; conditions: for average reduction of the SBP: 1 h after administration, significantly different from control
Protocol: In this recognized model of hypertension, male spontaneously hypertensive rats (315 to 376 g) with systolic blood pressures (SBP) >160 mm Hg were used. Systolic blood pressures were recorded on conscious animals by a tail cuff method (FS-40 blood pressure/pulse monitor). Prior to all measurements, the rats were placed in a restraining cylinder. […] The pressures were monitored again 1, 2, 3, 4 and 24 h after administration of the test compounds. A control group (n=18) was included for comparison purposes.

[3] = oral 30 mg/kg, after 2, 3, 4 and 24 h, Duncan-Kramer test, p<0.05

SMILES	% Inhibition of Angiotensin I-induced contractions [1] [%]	average reduction of the SBP ([2]; oral 30 mg/kg) [mm Hg]	antihypertensive effect ([2]; oral 30 mg/kg, overall)	other results
C[C@H](CS)C(=O)N1CCC[C@H]1C(=O)O [Captopril, D-3-mercapto-2-methylpropanoyl-L-proline, reference compound]	28.9	17.2±8.49		SBP reduction versus control ([2]; oral 30 mg/kg, after 24 h): inactive
CCOC(=O)c1cccc(C(=O)N[C@@H](C)C(=O)N2CCC[C@H]2C(=O)OCC)n1 [Compound No. 8, N-[(2-Ethoxycarbonyl-6-pyridinyl)carbonyl]-L-alanyl-L-proline ethyl ester]		32.6±7.49	significant antihypertensive effect	SBP reduction versus control [2, 3]: significantly different from the control; antihypertensive effect ([2]; oral doses of 7.5 and 15 mg/kg): Antihypertensive effects were also observed
CCOC(=O)[C@@H]1CCCN1C(=O)[C@H](C)NC(=O)c1ccc[nH]c1=O [Compound No. 21, N-[(1,2-Dihydro-2-oxo-3-pyridinyl)carbonyl]-L-alanyl-L-prolineethyl ester]	30.7		significant antihypertensive effect	SBP reduction, time course ([2]; oral 30 mg/kg, monitored 1, 2, 3, 4 and 24 h): significant reduction only after 2 h; SBP reduction ([2]; oral 45 mg/kg, after 2, 3, 4 and 24 h): significant
C[C@H](NC(=O)c1cccc(Cl)n1)C(=O)N1CCC[C@H]1C(=O)O [Compound No. 24, N-[(6-Chloro-2-pyridinyl)carbonyl]-L-atanyl-L-proline]	20.6			
C[C@H](NC(=O)c1cc[nH]c(=S)c1)C(=O)N1CCC[C@H]1C(=O)O [Compound No. 27, N-[(1,2-dihydro-2-thioxo-4-pyridinyl)carbonyl]-L-alanyl-L-proline]	18.1	28.4±3.16	significant antihypertensive effect	SBP reduction versus control [2, 3]: significantly different from the control; antihypertensive effect ([2]; oral doses of 7.5 and 15 mg/kg): Antihypertensive effects were also observed
C[C@H](NC(=O)c1ccc(=S)[nH]c1)C(=O)N1CCC[C@H]1C(=O)O [Compound No. 29, N-[(1,6-dihydro-6-thioxo-3-pyridinyl)carbonyl]-L-alanyl-L-proline]	16.2			
C[C@H](NC(=O)c1ccc(=O)[nH]c1)C(=O)N1CCC[C@H]1C(=O)O [Compound No. 35, N-[(1,6-dihydro-6-oxo-3-pyridinyl)carbonyl]-L-alanyl-L-proline]	16.0			
